According to ChEMBL document CHEMBL1201862, “PubChem BioAssay data set” (2004):
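Protocol summary: plate cells (96-well), add compound at 5 concentrations, incubate 48 h, interpolate endpoints linearly. Abbreviation: GI50, concentration required for 50% inhibition of growth.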 Active and inactive are the calls of the source. No stated cut-off is given here; in the data, active = GI50 up to about 1.1 µM and inactive = higher.

Assays:
Experiment in all cases: NCI-60 cell line screen, 48 h
786-0 = test system: 786-0
A498 = test system: A498
A549 = test system: A549
ACHN = test system: ACHN
CAKI-1 = test system: CAKI-1
CCRF-CEM = test system: CCRF-CEM
COLO 205 = test system: COLO 205
DU-145 = test system: DU-145
EKVX = test system: EKVX
HCT-116 = test system: HCT-116
HCT-15 = test system: HCT-15
HL-60 = test system: HL-60
HOP-92 = test system: HOP-92
HT-29 = test system: HT-29
Hs-578T = test system: Hs-578T
IGROV-1 = test system: IGROV-1
K562 = test system: K562
KM12 = test system: KM12
LOX IMVI = test system: LOX IMVI
M14 = test system: M14
MCF7 = test system: MCF7
MDA-MB-231 = test system: MDA-MB-231
MDA-MB-435 = test system: MDA-MB-435
MDA-N = test system: MDA-N
MOLT-4 = test system: MOLT-4
Malme-3M = test system: Malme-3M
NCI-H226 = test system: NCI-H226
NCI-H23 = test system: NCI-H23
NCI-H460 = test system: NCI-H460
NCI-H522 = test system: NCI-H522
NCI/ADR-RES = test system: NCI/ADR-RES
OVCAR-4 = test system: OVCAR-4
OVCAR-5 = test system: OVCAR-5
OVCAR-8 = test system: OVCAR-8
PC-3 = test system: PC-3
RPMI-8226 = test system: RPMI-8226
RXF 393 = test system: RXF 393
SF-268 = test system: SF-268
SF-295 = test system: SF-295
SF-539 = test system: SF-539
SK-MEL-28 = test system: SK-MEL-28
SK-MEL-2 = test system: SK-MEL-2
SK-MEL-5 = test system: SK-MEL-5
SN12C = test system: SN12C
SNB-19 = test system: SNB-19
SNB-75 = test system: SNB-75
SR = test system: SR
SW-620 = test system: SW-620
TK-10 = test system: TK-10
U-251 = test system: U-251
UACC-257 = test system: UACC-257
UACC-62 = test system: UACC-62
UO-31 = test system: UO-31
HCC 2998 = test system: HCC 2998
HOP-62 = test system: HOP-62
OVCAR-3 = test system: OVCAR-3
SK-OV-3 = test system: SK-OV-3
T47D = test system: T47D

Compound: COc1ccc(-n2c(=O)[nH]n(C(C)=O)c2=O)cc1
- GI50 (786-0): > 100 µM (inactive)
- GI50 (A498): > 100 µM (inactive)
- GI50 (A549): > 100 µM (inactive)
- GI50 (ACHN): > 100 µM (inactive)
- GI50 (CAKI-1): > 100 µM (inactive)
- GI50 (CCRF-CEM): > 100 µM (inactive)
- GI50 (COLO 205): > 100 µM (inactive)
- GI50 (DU-145): > 100 µM (inactive)
- GI50 (EKVX): > 100 µM (inactive)
- GI50 (HCT-116): > 100 µM (inactive)
- GI50 (HCT-15): > 100 µM
- GI50 (HL-60): > 100 µM (inactive)
- GI50 (HOP-92): > 100 µM (inactive)
- GI50 (HT-29): > 100 µM (inactive)
- GI50 (Hs-578T): > 100 µM (inactive)
- GI50 (IGROV-1): > 100 µM (inactive)
- GI50 (K562): > 100 µM (inactive)
- GI50 (KM12): > 100 µM (inactive)
- GI50 (LOX IMVI): > 100 µM (inactive)
- GI50 (M14): > 100 µM (inactive)
- GI50 (MCF7): > 100 µM (inactive)
- GI50 (MDA-MB-231): > 100 µM (inactive)
- GI50 (MDA-MB-435): > 100 µM (inactive)
- GI50 (MDA-N): > 100 µM (inactive)
- GI50 (MOLT-4): > 100 µM (inactive)
- GI50 (Malme-3M): > 100 µM (inactive)
- GI50 (NCI-H226): > 100 µM (inactive)
- GI50 (NCI-H23): > 100 µM (inactive)
- GI50 (NCI-H460): > 100 µM (inactive)
- GI50 (NCI-H522): > 100 µM (inactive)
- GI50 (NCI/ADR-RES): > 100 µM (inactive)
- GI50 (OVCAR-4): > 100 µM (inactive)
- GI50 (OVCAR-5): > 100 µM (inactive)
- GI50 (OVCAR-8): > 100 µM (inactive)
- GI50 (PC-3): > 100 µM (inactive)
- GI50 (RPMI-8226): > 100 µM (inactive)
- GI50 (RXF 393): > 100 µM (inactive)
- GI50 (SF-268): > 100 µM (inactive)
- GI50 (SF-295): > 100 µM (inactive)
- GI50 (SF-539): > 100 µM (inactive)
- GI50 (SK-MEL-28): > 100 µM (inactive)
- GI50 (SK-MEL-2): > 100 µM (inactive)
- GI50 (SK-MEL-5): > 100 µM (inactive)
- GI50 (SN12C): > 100 µM (inactive)
- GI50 (SNB-19): > 100 µM (inactive)
- GI50 (SNB-75): > 100 µM (inactive)
- GI50 (SR): > 100 µM (inactive)
- GI50 (SW-620): > 100 µM (inactive)
- GI50 (TK-10): > 100 µM (inactive)
- GI50 (U-251): > 100 µM (inactive)
- GI50 (UACC-257): > 100 µM (inactive)
- GI50 (UACC-62): > 100 µM (inactive)
- GI50 (UO-31): > 100 µM (inactive)

Compound: CCN(CC)CCCNc1nc(=O)[nH]c(C)c1C(=O)Nc1c2ccccc2nc2ccccc12
- GI50 (786-0): 11.3 µM (inactive)
- GI50 (A498): 5.22 µM (inactive)
- GI50 (A549): 4.45 µM (inactive)
- GI50 (ACHN): 10.2 µM (inactive)
- GI50 (CAKI-1): 7.28 µM (inactive)
- GI50 (CCRF-CEM): 5.68 µM (inactive)
- GI50 (COLO 205): 8.79 µM (inactive)
- GI50 (DU-145): 12.8 µM (inactive)
- GI50 (EKVX): 12.2 µM (inactive)
- GI50 (HCC 2998): 8.79 µM (inactive)
- GI50 (HCT-116): 5.41 µM (inactive)
- GI50 (HCT-15): 4.8 µM
- GI50 (HL-60): 5.01 µM (inactive)
- GI50 (HOP-62): 24.8 µM (inactive)
- GI50 (HOP-92): 2.63 µM (inactive)
- GI50 (HT-29): 7.41 µM (inactive)
- GI50 (IGROV-1): 6.85 µM (inactive)
- GI50 (K562): 4.75 µM (inactive)
- GI50 (KM12): 3.56 µM (inactive)
- GI50 (LOX IMVI): 8.43 µM (inactive)
- GI50 (M14): 15.5 µM (inactive)
- GI50 (MCF7): 7.78 µM (inactive)
- GI50 (MDA-MB-231): 12.9 µM (inactive)
- GI50 (MDA-MB-435): 5.21 µM (inactive)
- GI50 (MDA-N): 4.86 µM (inactive)
- GI50 (MOLT-4): 4.28 µM (inactive)
- GI50 (Malme-3M): 7.87 µM (inactive)
- GI50 (NCI-H226): 14.9 µM (inactive)
- GI50 (NCI-H23): 7.53 µM (inactive)
- GI50 (NCI-H522): 3.63 µM (inactive)
- GI50 (NCI/ADR-RES): 12.9 µM (inactive)
- GI50 (OVCAR-3): 6.14 µM (inactive)
- GI50 (OVCAR-4): 3.96 µM (inactive)
- GI50 (OVCAR-5): 36.2 µM (inactive)
- GI50 (OVCAR-8): 21.7 µM (inactive)
- GI50 (PC-3): 17.1 µM (inactive)
- GI50 (RPMI-8226): 5.9 µM (inactive)
- GI50 (RXF 393): 27 µM (inactive)
- GI50 (SF-295): 5.97 µM (inactive)
- GI50 (SF-539): 11.9 µM (inactive)
- GI50 (SK-MEL-28): 12.3 µM (inactive)
- GI50 (SK-MEL-2): 20.8 µM (inactive)
- GI50 (SK-MEL-5): 10.8 µM (inactive)
- GI50 (SK-OV-3): 10.8 µM (inactive)
- GI50 (SN12C): 15.4 µM (inactive)
- GI50 (SNB-19): 8.71 µM (inactive)
- GI50 (SNB-75): 10.1 µM (inactive)
- GI50 (SW-620): 21.4 µM (inactive)
- GI50 (T47D): 10.7 µM (inactive)
- GI50 (TK-10): 17.1 µM (inactive)
- GI50 (U-251): 12.6 µM (inactive)
- GI50 (UACC-257): 15.6 µM (inactive)
- GI50 (UACC-62): 6.32 µM (inactive)
- GI50 (UO-31): 5.6 µM (inactive)

Compound: CC(=O)O[C@H]1C(=O)[C@@]2(C)C(C(OC(=O)c3ccccc3)[C@]3(O)CC(OC(=O)[C@H](OC(=O)CCC(=O)O)C(NC(=O)c4ccccc4)c4ccccc4)C(C)=C1C3(C)C)C1(OC(C)=O)COC1C[C@@H]2O (some centres not stated)
- GI50 (A549): < 0.0199 µM (active)
- GI50 (CAKI-1): 3.75 µM (inactive)
- GI50 (COLO 205): < 0.01 µM (active)
- GI50 (HCC 2998): 0.0191 µM (active)
- GI50 (HCT-15): 1.53 µM
- GI50 (HT-29): < 0.01 µM (active)
- GI50 (Hs-578T): < 0.01 µM (active)
- GI50 (IGROV-1): 0.0103 µM (active)
- GI50 (K562): < 0.01 µM (active)
- GI50 (KM12): < 0.01 µM (active)
- GI50 (LOX IMVI): < 0.0122 µM (active)
- GI50 (MOLT-4): < 0.0156 µM (active)
- GI50 (NCI-H460): < 0.01 µM (active)
- GI50 (OVCAR-3): < 0.01 µM (active)
- GI50 (OVCAR-4): 17.1 µM (inactive)
- GI50 (PC-3): < 0.01 µM (active)
- GI50 (SF-268): < 0.0166 µM (active)
- GI50 (SK-MEL-5): < 0.01 µM (active)
- GI50 (SNB-19): 0.0306 µM (active)
- GI50 (SR): < 0.01 µM (active)
- GI50 (SW-620): < 0.01 µM (active)
- GI50 (T47D): < 0.0203 µM (active)
- GI50 (TK-10): 0.265 µM (active)
- GI50 (U-251): < 0.01 µM (active)

Compound: Nc1ccn([C@@H]2CS[C@H](CO)O2)c(=O)n1 [LAMIVUDINE]
- GI50 (NCI-H23): > 100 µM (inactive)

Compound: COc1cc(O)c2c(=O)c(OC)c(-c3ccc(OC)c(OC)c3)oc2c1 [RETUSIN]
- GI50 (A498): 16.1 µM (inactive)
- GI50 (CAKI-1): 6.17 µM (inactive)
- GI50 (CCRF-CEM): > 100 µM (inactive)
- GI50 (COLO 205): > 100 µM (inactive)
- GI50 (HCT-15): > 100 µM
- GI50 (MDA-MB-435): > 100 µM (inactive)
- GI50 (NCI-H460): 20 µM (inactive)
- GI50 (NCI-H522): 2.79 µM (inactive)
- GI50 (RPMI-8226): 87.7 µM (inactive)
- GI50 (SK-OV-3): 5.02 µM (inactive)
- GI50 (SW-620): > 100 µM (inactive)
- GI50 (TK-10): > 100 µM (inactive)
- GI50 (U-251): 15.1 µM (inactive)
- GI50 (UACC-257): > 100 µM (inactive)
- GI50 (UO-31): > 100 µM (inactive)
